Source: DBAASP
Values after ≈ are worked out from the molar mass of the structure shown. Each block holds one compound with its values, some of them ahead of it.

Experiments:
Test in all cases: ≥ marks a high value that may be exact or a test limit, other limits are often not marked, values filed in µg/mL are converted to µM
[1] = tested on: Streptococcus mutans ATCC 25175
[2] = tested on: Staphylococcus aureus ATCC 12600
[3] = tested on: Pseudomonas aeruginosa ATCC 27853
[4] = tested on: Escherichia coli ATCC 25922
[5] = tested on: Escherichia coli ML-35
[6] = tested on: Staphylococcus aureus ATCC 25923
[7] = tested on: Bacillus megaterium
[8] = tested on: Salmonella enterica subsp. enterica serovar Typhimurium ATCC 14028
[9] = tested on: Pseudomonas aeruginosa 910
[10] = tested on: Pseudomonas aeruginosa 919
[11] = tested on: Pseudomonas aeruginosa PAO1
[12] = tested on: Pseudomonas aeruginosa 253
[13] = tested on: Staphylococcus xylosus
[14] = tested on: Escherichia coli DH5alpha
[15] = tested on: Listeria innocua
[16] = tested on: Escherichia coli
[17] = tested on: Micrococcus luteus A270
[18] = tested on: Escherichia coli UB1005
[19] = tested on: Salmonella enterica serovar Typhimurium
[20] = tested on: Candida albicans
[21] = tested on: Pseudomonas aeruginosa H103
[22] = tested on: Enterococcus faecalis ATCC 29212
[23] = tested on: Staphylococcus epidermidis
[24] = tested on: Escherichia coli ATCC 27325

MIC [13]: 8 µM (≈ 14.5 µg/mL)
MIC [14]: 16 µM (≈ 28.9 µg/mL)
SMILES: CC[C@H](C)[C@H](NC(=O)[C@H](CC(C)C)NC(=O)[C@H](CCCCN)NC(=O)[C@H](CCCN=C(N)N)NC(=O)[C@@H](N)CCCCN)C(=O)N[C@@H](CC(C)C)C(=O)N[C@@H](CCCCN)C(=O)N[C@@H](CCCN=C(N)N)C(=O)N[C@H](C(=O)N[C@@H](CC(C)C)C(=O)N[C@H](C(=O)N[C@@H](CCCCN)C(=O)N[C@@H](CCCN=C(N)N)C(=O)N[C@@H](CCCCN)C(=O)O)[C@@H](C)CC)[C@@H](C)CC [KRKLILKRILIKRK]

MIC [15]: 11 µM (≈ 30.3 µg/mL)
MIC [16]: 11 µM (≈ 30.3 µg/mL)
MIC [17]: ≥ 45 µM
SMILES: CC(C)C[C@H](NC(=O)[C@@H](NC(=O)[C@@H](NC(=O)[C@H](CC(C)C)NC(=O)[C@H](CC(C)C)NC(=O)[C@H](CO)NC(=O)[C@H](Cc1cnc[nH]1)NC(=O)[C@H](CO)NC(=O)[C@H](CC(C)C)NC(=O)[C@H](CC(C)C)NC(=O)[C@H](CCCCN)NC(=O)[C@H](Cc1ccccc1)NC(=O)[C@H](CC(N)=O)NC(=O)[C@@H](NC(=O)[C@@H]1CCCN1C(=O)[C@H](CC(=O)O)NC(=O)[C@@H](NC(=O)[C@H](CCCN=C(N)N)NC(=O)[C@H](CC(C)C)NC(=O)[C@H](CCCCN)NC(=O)[C@H](Cc1cnc[nH]1)NC(=O)[C@H](C)NC(=O)[C@H](Cc1cnc[nH]1)NC(=O)[C@@H](N)CC(C)C)C(C)C)C(C)C)C(C)C)[C@@H](C)O)C(=O)O [LHAHKLRVDPVNFKLLSHSLLVTL]

MIC [18]: 1.3 µM (≈ 2 µg/mL)
MIC [9]: ≥ 32 µM
MIC [6]: 1.3 µM (≈ 2 µg/mL)
MIC [19]: 5.21 µM (≈ 7.99 µg/mL)
MIC [10]: ≥ 32 µM
MIC [11]: 16 µM (≈ 24.6 µg/mL)
MIC [20]: 5.21 µM (≈ 7.99 µg/mL)
MIC [21]: 5.21 µM (≈ 7.99 µg/mL)
MIC [22]: 1.3 µM (≈ 2 µg/mL)
MIC [23]: 0.325 µM (≈ 0.5 µg/mL)
MIC [12]: ≥ 32 µM
SMILES: CC[C@H](C)[C@H](NC(=O)[C@H](CCCN=C(N)N)NC(=O)[C@H](Cc1c[nH]c2ccccc12)NC(=O)[C@H](CC(C)C)NC(=O)[C@@H](N)CCCN=C(N)N)C(=O)N[C@H](C(=O)N[C@H](C(=O)N[C@H](C(=O)N[C@@H](CCCN=C(N)N)C(=O)N[C@H](C(=O)N[C@@H](C)C(=O)N[C@@H](CCCN=C(N)N)C(N)=O)C(C)C)[C@@H](C)CC)C(C)C)C(C)C [RLWRIVVIRVAR]

MIC [13]: 1 µM (≈ 1.52 µg/mL)
MIC [14]: 8 µM (≈ 12.2 µg/mL)
SMILES: CC(C)C[C@H](NC(=O)[C@H](CC(C)C)NC(=O)[C@H](CC(C)C)NC(=O)[C@H](CC(C)C)NC(=O)[C@H](CC(C)C)NC(=O)[C@H](CCCN=C(N)N)NC(=O)[C@H](CCCN=C(N)N)NC(=O)[C@@H](N)CCCN=C(N)N)C(=O)N[C@@H](CCCN=C(N)N)C(=O)N[C@@H](CCCN=C(N)N)C(=O)N[C@@H](CCCN=C(N)N)C(=O)O [RRRLLLLLRRR]

MIC [24]: 6 µM (≈ 14.7 µg/mL)
SMILES: CC(C)C[C@H](NC(=O)CNC(=O)[C@H](C)NC(=O)[C@H](CCCN=C(N)N)NC(=O)[C@H](CO)NC(=O)[C@H](CO)NC(=O)[C@H](CCCN=C(N)N)NC(=O)[C@@H](N)[C@@H](C)O)C(=O)N[C@@H](CCC(N)=O)C(=O)N[C@@H](Cc1c[nH]c2ccccc12)C(=O)N[C@@H](C)C(=O)N[C@H](C(=O)NCC(=O)N[C@@H](CCCN=C(N)N)C(=O)N[C@H](C(=O)N[C@@H](Cc1cnc[nH]1)C(=O)N[C@@H](CCCN=C(N)N)C(=O)N[C@@H](CC(C)C)C(=O)N[C@@H](CC(C)C)C(=O)N[C@@H](CCCN=C(N)N)C(=O)N[C@@H](CCCCN)C(=O)O)C(C)C)C(C)C [TRSSRAGLQWAVGRVHRLLRK]

Continued, compound first:

SMILES: CC[C@H](C)[C@H](NC(=O)[C@H](C)NC(=O)CNC(=O)[C@H](Cc1ccccc1)NC(=O)[C@H](CC(C)C)NC(=O)CN)C(=O)N[C@@H](C)C(=O)NCC(=O)N[C@@H](Cc1ccccc1)C(=O)N[C@H](C(=O)N[C@@H](CCCCN)C(=O)N[C@@H](CCCCN)C(=O)NCC(=O)N[C@@H](Cc1c[nH]c2ccccc12)C(=O)N[C@@H](CCCCN)C(=O)NCC(=O)N[C@@H](CCSC)C(=O)N[C@H](C(=O)N[C@@H](CCCCN)C(=O)NCC(N)=O)C(C)C)[C@@H](C)CC [GLFGAIAGFIKKGWKGMVKG]
MIC [1]: 1.9 µM (≈ 3.92 µg/mL)
MIC [2]: 3.8 µM (≈ 7.85 µg/mL)
MIC [3]: 7.6 µM (≈ 15.7 µg/mL)
MIC [4]: 7.6 µM (≈ 15.7 µg/mL)

SMILES: CC[C@H](C)[C@H](NC(=O)[C@H](CCCCN)NC(=O)[C@H](CCCCN)NC(=O)[C@H](CC(C)C)NC(=O)[C@H](CCCCN)NC(=O)[C@H](CCC(N)=O)NC(=O)[C@H](CCCCN)NC(=O)[C@@H](NC(=O)[C@H](CCCCN)NC(=O)[C@H](CC(N)=O)NC(=O)[C@H](CCCN=C(N)N)NC(=O)[C@H](Cc1ccccc1)NC(=O)[C@H](CCCCN)NC(=O)[C@H](CCCN=C(N)N)NC(=O)[C@H](CC(C)C)NC(=O)[C@H](CCCN=C(N)N)NC(=O)[C@H](CCCCN)NC(=O)[C@H](CCCN=C(N)N)NC(=O)[C@H](CC(C)C)NC(=O)CN)[C@@H](C)CC)C(=O)O [GLRKRLRKFRNKIKQKLKKI]
MIC [5]: 2 µM (≈ 5.1 µg/mL)
MIC [6]: 4 µM (≈ 10.2 µg/mL)
MIC [7]: 4 µM (≈ 10.2 µg/mL)
MIC [3]: 0.5 µM (≈ 1.28 µg/mL)
MIC [8]: 2 µM (≈ 5.1 µg/mL)
MIC [4]: 4 µM (≈ 10.2 µg/mL)

SMILES: CC[C@H](C)[C@H](N)C(=O)N[C@@H](CC(C)C)C(=O)N[C@@H](CCCCN)C(=O)N[C@@H](Cc1c[nH]c2ccccc12)C(=O)N[C@@H](CCCCN)C(=O)N[C@@H](CCCCN)C(=O)NCC(=O)N[C@@H](Cc1c[nH]c2ccccc12)C(=O)N[C@@H](Cc1c[nH]c2ccccc12)C(=O)N[C@@H](CCCCN)C(=O)N[C@@H](Cc1c[nH]c2ccccc12)C(=O)N[C@@H](Cc1ccccc1)C(=O)N[C@@H](CCCN=C(N)N)C(N)=O [ILKWKKGWWKWFR]
MIC [9]: 4 µM (≈ 7.45 µg/mL)
MIC [10]: 16 µM (≈ 29.8 µg/mL)
MIC [11]: 4 µM (≈ 7.45 µg/mL)
MIC [12]: 8 µM (≈ 14.9 µg/mL)

SMILES: CC[C@H](C)[C@H](N)C(=O)N[C@@H](CC(C)C)C(=O)N[C@@H](CCCCN)C(=O)N[C@@H](Cc1c[nH]c2ccccc12)C(=O)N[C@@H](CCCCN)C(=O)N[C@@H](CCCN=C(N)N)C(=O)N[C@@H](CCCCN)C(=O)N[C@@H](Cc1c[nH]c2ccccc12)C(=O)N[C@@H](Cc1c[nH]c2ccccc12)C(=O)N[C@@H](CCCCN)C(=O)N[C@@H](Cc1c[nH]c2ccccc12)C(=O)N[C@@H](CCCN=C(N)N)C(=O)N[C@@H](CCCN=C(N)N)C(N)=O [ILKWKRKWWKWRR]
MIC [9]: 2 µM (≈ 3.94 µg/mL)
MIC [10]: 16 µM (≈ 31.5 µg/mL)
MIC [11]: 1 µM (≈ 1.97 µg/mL)
MIC [12]: 4 µM (≈ 7.88 µg/mL)

SMILES: NCCCC[C@H](NC(=O)[C@H](CCCCN)NC(=O)[C@H](CCCCN)NC(=O)[C@H](Cc1ccccc1)NC(=O)[C@H](Cc1ccccc1)NC(=O)[C@H](Cc1ccccc1)NC(=O)[C@H](Cc1ccccc1)NC(=O)[C@H](Cc1ccccc1)NC(=O)[C@H](CCCCN)NC(=O)[C@H](CCCCN)NC(=O)[C@@H](N)CCCCN)C(=O)O [KKKFFFFFKKK]
MIC [13]: 4 µM (≈ 6.09 µg/mL)
MIC [14]: 16 µM (≈ 24.4 µg/mL)

SMILES: CC[C@H](C)[C@H](NC(=O)[C@H](CCCCN)NC(=O)[C@H](CCCN=C(N)N)NC(=O)[C@@H](N)CCCCN)C(=O)N[C@@H](CCCCN)C(=O)N[C@@H](CCCN=C(N)N)C(=O)N[C@@H](CCCCN)C(=O)O [KRKIKRK]
MIC [13]: ≥ 64 µM
MIC [14]: ≥ 64 µM
